Where “and” joins values, the source holds several entries; their conditions need not be identical. Identical values can stand only once. Toxic doses and inconclusive results are not listed. Cut-off read from the data, not from the text of the source: active = T/C of 150% or more; inactive = T/C below 125%.
Tested on: L1210 leukemia ip in BDF1 mice, survival T/C
Test: NCI In Vivo Anticancer Drug Screen. Data for tumor model L1210 Leukemia (intraperitoneal) in B6D2F1 (BDF1) mice
Conditions: endpoint: mean survival time, higher = longer survival
Procedure, shortened: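 Mice bearing the transplanted tumor received compound or vehicle. Survival of the treated group was divided by that of the vehicle-treated control group to give the ratio.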

[1] = dose: 100.0 mg/kg/injection, schedule: Q01DX001 (ip), vehicle: saline
[2] = dose: 200.0 mg/kg/injection, schedule: Q01DX001 (ip), vehicle: saline
[3] = dose: 400.0 mg/kg/injection, schedule: Q01DX001 (ip), vehicle: saline
[4] = dose: 12.5 mg/kg/injection, schedule: Q04DX003 (ip), vehicle: Klucel (hydroxypropylcellulose) (HPC)
[5] = dose: 25.0 mg/kg/injection, schedule: Q04DX003 (ip), vehicle: Klucel (hydroxypropylcellulose) (HPC)
[6] = dose: 50.0 mg/kg/injection, schedule: Q04DX003 (ip), vehicle: Klucel (hydroxypropylcellulose) (HPC)
[7] = dose: 100.0 mg/kg/injection, schedule: Q04DX003 (ip), vehicle: Klucel (hydroxypropylcellulose) (HPC)
[8] = dose: 100.0 mg/kg/injection, schedule: Q04DX002 (ip), vehicle: Klucel (hydroxypropylcellulose) (HPC)
[9] = dose: 200.0 mg/kg/injection, schedule: Q04DX002 (ip), vehicle: Klucel (hydroxypropylcellulose) (HPC)
[10] = dose: 400.0 mg/kg/injection, schedule: Q04DX002 (ip), vehicle: Klucel (hydroxypropylcellulose) (HPC)
[11] = dose: 100.0 mg/kg/injection, schedule: Q01DX009 (ip), vehicle: Klucel (hydroxypropylcellulose) (HPC)
[12] = dose: 200.0 mg/kg/injection, schedule: Q01DX009 (ip), vehicle: Klucel (hydroxypropylcellulose) (HPC)
[13] = dose: 400.0 mg/kg/injection, schedule: Q01DX009 (ip), vehicle: Klucel (hydroxypropylcellulose) (HPC)
[14] = dose: 100.0 mg/kg/injection, schedule: Q01DX001 (ip), vehicle: saline with Tween-80
[15] = dose: 100.0 mg/kg/injection, schedule: Q01DX009 (ip), vehicle: saline with Tween-80
[16] = dose: 100.0 mg/kg/injection, schedule: Q04DX002 (ip), vehicle: saline with Tween-80
[17] = dose: 100.0 mg/kg/injection, schedule: Q04DX003 (ip), vehicle: saline with Tween-80
[18] = dose: 200.0 mg/kg/injection, schedule: Q01DX009 (ip), vehicle: saline with Tween-80
[19] = dose: 200.0 mg/kg/injection, schedule: Q04DX002 (ip), vehicle: saline with Tween-80
[20] = dose: 200.0 mg/kg/injection, schedule: Q04DX003 (ip), vehicle: saline with Tween-80
[21] = dose: 400.0 mg/kg/injection, schedule: Q04DX003 (ip), vehicle: saline with Tween-80
[22] = dose: 25.0 mg/kg/injection, schedule: Q01DX009 (ip), vehicle: Klucel (hydroxypropylcellulose) (HPC)
[23] = dose: 100.0 mg/kg/injection, schedule: Q01DX001 (ip), vehicle: Klucel (hydroxypropylcellulose) (HPC)

Measured: T/C

CCC(CC)=NNc1ccc([N+](=O)[O-])cc1[N+](=O)[O-]
inactive: [1] 95 % of control | [2] 97 % of control | [3] 97 % of control

CC1=CC(C)(C)NC(=S)N1c1ccc(N(C)C)cc1
inactive: dose: 112.0 mg/kg/injection, schedule: Q01DX Z (ip), vehicle: methylcellulose (MC) 101 % of control | dose: 166.0 mg/kg/injection, schedule: Q01DX Z (ip), vehicle: methylcellulose (MC) 96 % of control | dose: 250.0 mg/kg/injection, schedule: Q01DX Z (ip), vehicle: methylcellulose (MC) 94 % of control | dose: 375.0 mg/kg/injection, schedule: Q01DX Z (ip), vehicle: methylcellulose (MC) 96 % of control

O=C1CCCC(=O)c2c(O)ccc(O)c21
inactive: [1] 96 % of control | [2] 98 % of control | [3] 96 % of control

CC(=O)NN=C1CCC(=NNC(C)=O)CC1
inactive: [4] 97 % of control | [5] 94 % of control | [6] 108 % of control | [7] 110 % of control

CCc1cc2oc(C)c(C)c2c(N=Nc2ccc([N+](=O)[O-])cc2)c1O
inactive: [8] 102 % of control | [9] 96 % of control | [10] 99 % of control

CCOP(=S)(N1CC1C)N1CC1C (stereo not drawn)
inactive: dose: 25.0 mg/kg/injection, schedule: Q01DX Z (ip), vehicle: carboxymethylcellulose (CMC) 103 % of control | dose: 50.0 mg/kg/injection, schedule: Q01DX Z (ip), vehicle: carboxymethylcellulose (CMC) 105 % of control | dose: 100.0 mg/kg/injection, schedule: Q01DX Z (ip), vehicle: carboxymethylcellulose (CMC) 108 % of control | dose: 200.0 mg/kg/injection, schedule: Q01DX Z (ip), vehicle: carboxymethylcellulose (CMC) 121 % of control

CCOc1cc(/C=N/NC(=O)c2ccccc2NC(=O)c2ccccc2)ccc1OC
inactive: [11] 92 % of control | [12] 92 % of control | [13] 101 % of control

COB(OC)OC
inactive: dose: 50.0 mg/kg/injection, schedule: Q01DX001 (ip), vehicle: saline 98 % of control | [1] 95 % of control | [2] 101 % of control | [3] 95 % of control

CCOc1ccccc1NC(=S)NC(=O)c1ccc(OC)cc1
inactive: [11] 104 % of control | [7] 109 % of control | [12] 93 % of control | dose: 200.0 mg/kg/injection, schedule: Q04DX003 (ip), vehicle: Klucel (hydroxypropylcellulose) (HPC) 102 % of control | [13] 93 % of control | dose: 400.0 mg/kg/injection, schedule: Q04DX003 (ip), vehicle: Klucel (hydroxypropylcellulose) (HPC) 100 % of control

C/C=C/C(=O)NCC(=O)O
inactive: [1] 90 % of control | [2] 97 % of control | [3] 103 % of control

ClCCN(CCCl)c1ccc(CNCCCNCc2ccc(N(CCCl)CCCl)cc2Cl)c(Cl)c1
inactive: dose: 50.0 mg/kg/injection, schedule: Q01DX001 (ip), vehicle: carboxymethylcellulose (CMC) 93 % of control

Cc1ccc(C(C)(O)c2cnc(C)n2Cc2ccccc2)cc1 (stereo not drawn)
inactive: [14] 97 % of control | [15] 95 % of control and 113 % of control | [16] 110 % of control and 92 % of control | [17] 101 % of control | dose: 200.0 mg/kg/injection, schedule: Q01DX001 (ip), vehicle: saline with Tween-80 97 % of control | [18] 98 % of control and 102 % of control | [19] 95 % of control and 97 % of control | [20] 103 % of control | dose: 400.0 mg/kg/injection, schedule: Q01DX001 (ip), vehicle: saline with Tween-80 91 % of control | dose: 400.0 mg/kg/injection, schedule: Q01DX009 (ip), vehicle: saline with Tween-80 91 % of control and 92 % of control | dose: 400.0 mg/kg/injection, schedule: Q04DX002 (ip), vehicle: saline with Tween-80 103 % of control and 88 % of control | [21] 98 % of control

CSc1ccccc1C1CCCCCC1OS(C)(=O)=O (stereo not drawn)
inactive: [4] 109 % of control | [22] 109 % of control | [5] 106 % of control | dose: 50.0 mg/kg/injection, schedule: Q01DX009 (ip), vehicle: Klucel (hydroxypropylcellulose) (HPC) 107 % of control | [6] 102 % of control | [23] 105 % of control | [11] 102 % of control | [7] 107 % of control

O=c1nc2c3ncn(Cc4ccccc4)c3nnn2[nH]1
inactive: dose: 100.0 mg/kg/injection, schedule: Q01DX001 (ip), vehicle: carboxymethylcellulose (CMC) 100 % of control | dose: 200.0 mg/kg/injection, schedule: Q01DX001 (ip), vehicle: carboxymethylcellulose (CMC) 106 % of control | dose: 400.0 mg/kg/injection, schedule: Q01DX001 (ip), vehicle: carboxymethylcellulose (CMC) 100 % of control

O=[N+]([O-])c1ccc(-n2ccnc2)c([N+](=O)[O-])c1
inactive: [8] 100 % of control | [9] 100 % of control | [10] 93 % of control

CCN(Cc1ccccc1)C(=S)Nc1ccccc1
inactive: [8] 96 % of control | [9] 108 % of control | [10] 101 % of control

Nc1c(Cl)cc2c(c1Br)C(=O)c1ccccc1C2=O
inactive: [23] 117 % of control | dose: 400.0 mg/kg/injection, schedule: Q01DX001 (ip), vehicle: Klucel (hydroxypropylcellulose) (HPC) 90 % of control

NC1=C(Cl)C(=O)c2ccccc2C1=O
inactive: dose: 25.0 mg/kg/injection, schedule: Q04DX003 (ip), vehicle: saline with Tween-80 100 % of control | dose: 50.0 mg/kg/injection, schedule: Q04DX003 (ip), vehicle: saline with Tween-80 101 % of control | [17] 90 % of control

O=c1ccc([N+](=O)[O-])c[nH]1.[Ag]
inactive: dose: 6.25 mg/kg/injection, schedule: Q01DX009 (ip), vehicle: Klucel (hydroxypropylcellulose) (HPC) 86 % of control | dose: 12.5 mg/kg/injection, schedule: Q01DX009 (ip), vehicle: Klucel (hydroxypropylcellulose) (HPC) 86 % of control | [4] 88 % of control | [22] 95 % of control | [5] 99 % of control

CCOC(=O)c1ccc(NC(=S)NC(=O)c2ccccc2)cc1
inactive: [16] 100 % of control | [19] 94 % of control

ClC1(Cl)CC1c1ccccc1 (stereo not drawn)
inactive: [15] 101 % of control | [18] 91 % of control

C=C1C(=O)OC2C1C(OC(=O)/C(C)=C/COC(C)=O)CC1(CO1)C1C(O)C=C(C)C21 (stereo not drawn)
inactive: dose: 12.5 mg/kg/injection, schedule: Q01DX009 (ip), vehicle: alcohol 103 % of control | dose: 25.0 mg/kg/injection, schedule: Q01DX009 (ip), vehicle: alcohol 105 % of control | dose: 50.0 mg/kg/injection, schedule: Q01DX009 (ip), vehicle: alcohol 105 % of control and 107 % of control

CN(Cc1c(S)ccc2ccccc12)Cc1c(S)ccc2ccccc12
inactive: [1] 94 % of control | [2] 98 % of control | [3] 96 % of control

O=C(O)C1CCC(CC2CC3CCC2C3)CC1 (stereo not drawn)
inactive: [15] 90 % of control | [18] 96 % of control

C=C1CC(Cc2ccccc2)OC1=O (stereo not drawn)
inactive: [14] 94 % of control

O=C(O)c1ccc2c3c(ccc([N+](=O)[O-])c13)C=C2
inactive: [17] 96 % of control | [20] 94 % of control | [21] 103 % of control

— PubChem BioAssay AID248 (DTP/NCI, 2004)
